From patent publication US9006185B2, “Use of cell-permeable peptide inhibitors of the JNK signal transduction pathway for the treatment of various diseases” (Xigen Inflammation Ltd., priority 2008, dated 2015) come the findings set out here.

Data set [1] relates to endogenous JNK in HepG2 cells. Description: AlphaScreen, endogenous IL-1 dependent JNK activity in HepG2 cells. In kind it is cell-based. Conditions: FIG. 3 panel d. Here is the method:
HepG2 cells were seeded at 3,000 cells/well the day prior the experiment. Then, increasing concentrations of either interleukin-1 [IL-1 beta v)] or tumor necrosis factor [TNFalpha (•)] (a) were added to activate JNK for 30 minutes. Cells were lysed in 20 mM Hepes, 0.5% Tween pH 7.4 and processed for AlphaScreen JNK. (b) Z′ for the JNK activity induced by 10 ng/ml IL-1 and measured in 384 wells/plate (n=96). (c) Inhibition of endogenous IL-1 beta-induced JNK activity with chemical JNK inhibitors [staurosporin (°) and SP600125 (•)]. (d) Effect of peptidic inhibitors L-TAT-IB1(s) according to SEQ ID NO: 9 [here abbreviated as L-JNKi (ν)) and D-TAT-IB1(s) according to SEQ ID NO: 11 (here abbreviated as D-JNKi (♦)) and JBDs (•) (corresponds to L-JNKI without the TAT sequence)] on IL-1 dependent JNK activity. All panels are representative of three independent experiments (n=3). […]
Principle: AlphaScreen is a non-radioactive bead-based technology used to study biomolecular interactions in a microplate format. The acronym ALPHA stands for Amplified Luminescence Proximity Homogenous Assay. […]
Kinase reagents (B-GST-cJun, anti P-cJun antibody and active JNK3) were first diluted in kinase buffer (20 mM Tris-HCl pH 7.6, 10 mM MgCl2, 1 mM DTT, 100 μM Na3VO4, 0.01% Tween-20) and added to wells (15 μl). […] AlphaScreen signal was analyzed directly on the Fusion or En Vision apparatus.

Data set [2] relates to THP-1 cells. The data set can be described thus: LPS-induced cytokine and chemokine release in THP-1 cells. In kind it is cell-based.
The test system of data set [3] is db/db mice.
From the text: i) Animals • A total of twenty (20) male db/db mice (8 weeks old) were obtained from Charles River (Germany). Upon arrival, animals were group housed (n=6-7/group) and offered regular rodent chow (Altromin standard #1324 chow; C. Petersen, Ringsted, Denmark) and water ad libitum unless otherwise stated. • The mice were housed under a 12:12 L/D cycle (lights on at 4:00 and lights off at 16:00) and in temperature and humidity controlled rooms.
ii) Groups and Randomization • On day 4, mice were randomized according to blood glucose level (fasted; blood glucose measured on Biosen S line analyzer (EKF diagnostic, Germany) to participate in one of the following drug treatment groups (n=6): • 1) Vehicle control, S.C. […] Drug purity: 95.28%, peptide content: 78.0%. All compounds were administered sub-cutaneously (s.c.) in a volume of 3 ml/kg. […] The formulations (concentrations of 0.33 and 3.3 mg/ml, corresponding to the doses of 1 and 10 mg/kg, respectively) were prepared according to the procedure detailed below. […] Aliquots are prepared for each treatment day and stored at approximately −80° C. Dilutions of this stock solution to the required concentrations are performed on each treatment day; • Storage of the stock solution: at approximately −80° C.; • Storage of the diluted preparations: at room temperature for 24 hours maximum. • Prior to solubilisation, the powder was stored at −20° C. The stability of the stock solution is 3 months at approximately −80° C.; the stability of the diluted formulations for animal dosing is 24 hours at room temperature. Unused diluted material could be stored for up to 7 days if kept at 4-8° C. c) Experimental Procedure
Following 8 days of acclimatization the mice were treated daily at 08.00 AM for 21 days by SC dosing 8 hours prior to lights out at 04.00 PM according to the outline groups.
i) Blood Glucose • Blood glucose was measured from 7 hour fasted animals 6 hours post dosing by collection of 10 μl blood samples from the tail-vein in hematocrite tubes and subsequent analysis on a Biosen s-line analyzer (EKF-diagnostic; Germany).
ii) Metabolic Cages • Groups 1+3: Mice were placed in metabolic cages for the recording of 24-hour food and water intake as well as 24-hour urine and feces production. Mice were stratified into two sub-teams of n=6-7 and subsequently the metabolic characterisation were performed on study days 71-72.
iii) Adipokine Panel • Groups 1+3: On three occasions (study days 57, 66 and 108) blood was collected from the tail vein using EDTA coated hematocrite tubes (100 μl). Following centrifugation of blood the plasma was collected and stored at −20° C. until measurement. Then, the following panel of adipokines/cytokines was determined using Luminex based 7-plex: leptin, resistin, MCP-1, PAI-1, TNF, insulin and interleukin-6 (IL-6).
iv) Termination • Groups 1+3 (day 111): The following organs were excised and weighed: inguinal subcutaneous fat, epididymal fat, retroperitoneal fat, brain, liver, kidney, spleen and heart. All organs described above were samples in 4% PFA for possible future histo-pathological examination. Also, pancreas (en bloc) was sampled for possible stereological and immunohistochemical analysis, and eyes were sampled for possible later analysis of retinopathy. Group 2 (day 28): No tissues or plasma were collected. c) Results
Data set [4] relates to Varicella-Zoster Virus (VZV). Description: Plaque reduction assay against VZV in HFFs. Conditions: for Spread of VZV (pfu) ± SD: 24 hours. The class given is cell-based, human. Here is the method: Additionally, inhibitors of cell functions may be toxic to cells, which could non-specifically prevent virus growth. […] Since this may falsify the results, a cytotoxicity assay was carried out first, determining the tolerance of the cultured cells to the test compound. Subsequently, a plaque reduction assay was carried out and then activity of the JNK inhibitor peptide XG-102 (SEQ ID NO: 11) was tested with respect to […] (VZV) in infected cells. • A) Determination of the Cytotoxicity of all-D Retro-Inverso Ib(s) Peptides: • For determination of toxicity, cultured cells (human foreskin fibroblasts (HFFs)) were seeded in 96-well tissue culture plates. Medium containing DMSO (same level as 5 μM XG-102 (SEQ ID NO: 11)), or XG-102 (SEQ ID NO: 11) was added at several concentrations of (1, 2, and 5 μM) for 24 h. Subsequently, a Neutral Red assay was carried out. Neutral Red colorimetric assays for cytotoxicity assays (in sets of 6 replicates) were used to set the maximum dose for subsequent efficacy assays (as performed in Taylor et al, 2004, J. Virology, 78:2853-2862). Live cells absorb Neutral Red and, accordingly, the level of absorbance is a quantitative measure of cell viability and number. Neutral Red uptake is directly proportional to the number of cells and also reflects normal endocytosis. Therefore, a brief pulse of Neutral Red was added to the medium at 0 or 24 hours. After fixation and extraction, dye was added and the amount of dye in each sample was measured in an ELISA plate reader at 540 nm (see FIG. 4). […] In this plaque reduction assay, confluent human foreskin fibroblasts (HFFs) in 24-well plates were inoculated with VZV-infected HFFs at a ratio of 1:100 (multiplicity of infection MOI=0.01) and adsorbed to the cells for 2 hours. The excess virus was washed out, and medium containing 0 (DMSO only), 0.5, 1, or 2 μM XG-102 (SEQ ID NO: 11) was added. One sample was taken at this time to measure the initial level of infection; wherein each well contained ˜150 pfu. After 24 hours, duplicate wells were trypsinized, and then the cell suspensions were titered on MeWo cell monolayers in triplicate to determine the number of VZV-infected cells in each sample. During unrestricted growth, VZV usually increases by 10-fold over 1 day because it propagates by cell-cell spread. […]
A general note: Plaques are areas of infected cells; plaque reduction assays count them against a control.

“Also recorded” adds a separate entry of the source.

On to `CC(C)C[C@@H](NC(=O)[C@@H](Cc1ccccc1)NC(=O)[C@H]1CCCN1C(=O)[C@@H](CCC(N)=O)NC(=O)[C@H](NC(=O)[C@H]1CCCN1C(=O)[C@@H](CCCNC(=N)N)NC(=O)[C@@H](CO)NC(=O)[C@@H](CCC(N)=O)NC(=O)[C@H](N)CC(=O)O)C(C)C)C(=O)N[C@H](CC(N)=O)C(=O)N[C@H](CC(C)C)C(=O)N[C@@H](C(=O)N[C@@H](C(=O)N1CCC[C@@H]1C(=O)N[C@H](CCCNC(=N)N)C(=O)N[C@H](CCCCN)C(=O)N1CCC[C@@H]1C(=O)N[C@H](CCCNC(=N)N)C(=O)N1CCC[C@@H]1C(=O)N1CCC[C@@H]1C(=O)N[C@H](CCCNC(=N)N)C(=O)N[C@H](CCCNC(=N)N)C(=O)N[C@H](CCCNC(=N)N)C(=O)N[C@H](CCC(N)=O)C(=O)N[C@H](CCCNC(=N)N)C(=O)N[C@H](CCCNC(=N)N)C(=O)N[C@H](CCCCN)C(=O)N[C@H](CCCCN)C(=O)N[C@H](CCCNC(=N)N)C(=O)NCC(=O)O)[C@H](C)O)[C@H](C)O` [XG-102], for which, in data set [1], the “inhibition of IL-1 dependent endogenous JNK activity” value is on record as “effectively inhibits JNK activity, even better than L-TAT-IB1(s)”. Further, the “LPS-induced TNFa, IL-6 and MCP-1 release” value in data set [2] was “reducing LPS-induced TNFa, IL-6 and MCP-1 release in THP-1 cells”. Moreover, in data set [3] (1 mg/kg s.c., 28 days of dosing), the fasting blood glucose result is given as “no effect”. Also, the body weight result in data set [3] (1 mg/kg, 28 days of dosing) is listed as “no effect”. In addition, the “fasting blood glucose, low plateau” value in data set [3] (10 mg/kg s.c.) is listed as “approximately 5 mmol/L”. Also, the “fasting blood glucose vs vehicle control” value in data set [3] (10 mg/kg s.c. daily for 21 days, then wash-out to day 111) was “clear and significant (p<0.001) decrease in the level of fasting blood glucose”. Further, the “plasma levels of insulin, MCP-1, IL-6, tPAI-1, TNF” value in data set [3] (10 mg/kg, day 57, 77 and 108) was “no significant effects”. In addition, the plasma resistin result in data set [3] (10 mg/kg, day 77 and 108) is “significantly higher”. The “body weight vs vehicle control” value in data set [3] (10 mg/kg, from day 28 to day 111) was “clear and significant (p<0.001) prevention of body weight increase”. The “24 hour food and water intake, urine and feces production (metabolic cages)” value in data set [3] (10 mg/kg, study day 68) is “no significant effects”. Besides, in data set [3] (10 mg/kg, termination day 111), the “tissue weight of epididymal and retroperitoneal fat pads” value is “significant decrease of epididymal (p<0.05) and retroperitoneal (p<0.01) fat mass”. In data set [3] (10 mg/kg, termination day 111), the “tissue weight of kidney and liver” value is “significant decrease of kidney (p<0.05) and liver (p<0.01) mass”. Moreover, the “alertness, activity, sedation” value in data set [3] (mouse, in vivo) was “no signs of sedation”. Also, the “Spread of VZV (pfu) ± SD” value in data set [4] (0.5 μM) was determined as 260 ± 53 pfu; in data set [4] (1.0 μM), 212 ± 48 pfu; in data set [4] (2.0 μM) it was 312 ± 79 pfu. For the same molecule, the “antiviral effect against VZV” value in data set [4] (0.5, 1, 2 μM) is on record as “potent inhibitor of Varizella Zoster Virus (VZV); also recorded: strong antiviral effect at all the concentrations tested”. For the same molecule, in data set [4] (all the concentrations tested (0.5-2 μM)), the VZV yields is given as 200-300 pfu.
